Laboratory results from ChEMBL document CHEMBL3875228, “Rational Design of a Boron-Modified Triphenylethylene (GLL398) as an Oral Selective Estrogen Receptor Downregulator” (ACS Med Chem Lett, 2017).

What was measured:
[1] = AUC in Sprague-Dawley rat assessed as GW7604 at 10 mg/kg, po administered via gavage measured at 1 to 24 hrs post administration by HPLC-MS/MS analysis; assay type: ADME, organism-based; details: in vivo
[2] = Half life in Sprague-Dawley rat assessed as GW7604 at 10 mg/kg, po administered via gavage measured at 1 to 24 hrs post administration by HPLC-MS/MS analysis; assay type: ADME, organism-based; details: in vivo
[3] = Cmax in Sprague-Dawley rat assessed as GW7604 at 10 mg/kg, po administered via gavage measured at 1 to 24 hrs post administration by HPLC-MS/MS analysis; assay type: ADME, organism-based; parameters: dose 10 mg/kg, route oral; details: in vivo
[4] = Half life in Sprague-Dawley rat at 10 mg/kg, po administered via gavage measured at 1 to 24 hrs post administration by HPLC-MS/MS analysis; assay type: ADME, organism-based; details: in vivo
cells [5] = details: Homo sapiens, MCF7, 120 h
Description: Cytotoxicity against tamoxifen-resistant human MCF7 cells assessed as reduction in cell viability after 5 days by Coulter counting method

[6] = Cmax in Sprague-Dawley rat at 10 mg/kg, po administered via gavage measured at 1 to 24 hrs post administration by HPLC-MS/MS analysis; assay type: ADME, organism-based; parameters: dose 10 mg/kg, route oral; details: in vivo
[7] = AUC in Sprague-Dawley rat at 10 mg/kg, po administered via gavage measured at 1 to 24 hrs post administration by HPLC-MS/MS analysis; assay type: ADME, organism-based; details: in vivo
[8] = Tmax in Sprague-Dawley rat at 10 mg/kg, po administered via gavage measured at 1 to 24 hrs post administration by HPLC-MS/MS analysis; assay type: ADME, organism-based; details: in vivo
cells [9] = details: Homo sapiens, MCF7, 120 h; remark: listed apart in the source
Description: Cytotoxicity against human MCF7 cells assessed as reduction in cell viability after 5 days by Coulter counting method

Estrogen receptor [10] = biological target: T1, Estrogen receptor (Homo sapiens, UniProt P03372); assay: Downregulation of ERalpha in human MCF7 cells after 4 hrs by Western blot analysis; assay type: cell-based
T1 sequence (P03372 whole entry): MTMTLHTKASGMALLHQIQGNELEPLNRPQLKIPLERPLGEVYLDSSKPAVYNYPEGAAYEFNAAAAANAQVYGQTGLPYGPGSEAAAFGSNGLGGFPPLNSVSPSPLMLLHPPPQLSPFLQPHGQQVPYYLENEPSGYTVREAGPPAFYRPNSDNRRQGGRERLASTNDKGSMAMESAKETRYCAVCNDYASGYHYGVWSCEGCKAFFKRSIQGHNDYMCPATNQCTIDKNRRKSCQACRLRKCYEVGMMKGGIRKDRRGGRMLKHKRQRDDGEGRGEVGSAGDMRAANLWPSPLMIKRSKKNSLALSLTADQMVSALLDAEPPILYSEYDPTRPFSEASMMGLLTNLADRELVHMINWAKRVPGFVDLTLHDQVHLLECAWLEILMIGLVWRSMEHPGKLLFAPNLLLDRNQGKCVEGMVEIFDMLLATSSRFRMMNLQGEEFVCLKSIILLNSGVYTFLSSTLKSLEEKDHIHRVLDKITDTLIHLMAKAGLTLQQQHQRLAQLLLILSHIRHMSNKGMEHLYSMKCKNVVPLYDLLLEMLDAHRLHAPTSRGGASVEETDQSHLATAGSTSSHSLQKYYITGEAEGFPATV

Estrogen receptor [11] = biological target: T1, Estrogen receptor; assay: biochemical
Description: Displacement of fluormone-labeled ES2 from recombinant full length human ERalpha ligand binding domain expressed in insect cells after 2 hrs by TR-FRET assay

Row | Compound | AUC [1] | t1/2 [2] | Cmax [3] | half-life [4] | IC50 (cells [5]) | Cmax [6] | AUC [7] | Tmax [8] | IC50 (cells [9]) | IC50 (Estrogen receptor [10]) | IC50 (Estrogen receptor [11])
1 | CC/C(=C(\c1ccccc1)c1ccc(/C=C/C(=O)O)cc1)c1ccc(O)cc1 | 8670 ng·h/mL | 4.5 h | 560 ng/mL | 7 h | 1000 nM | 270 ng/mL | 3350 ng·h/mL | 3 h | 1900 nM | – | –
2 | CC/C(=C(\c1ccc(O)cc1)c1ccc(OCCN(C)C)cc1)c1ccccc1 [AFIMOXIFENE] | – | – | – | – | 20000 nM | – | – | – | 3.4 nM | – | –
3 | CCC(=C(c1ccc(/C=C/C(=O)O)cc1)c1ccc(B(O)O)cc1)c1ccccc1 | – | – | – | 3.9 h | 1200 nM | 3510 ng/mL | 36900 ng·h/mL | 1 h | 1800 nM | 210 nM | 1.14 nM
